# Measured values taken from patent publication US10640466B2, “Anthracene based compounds and their uses” (UNIVERSITY OF HERTFORDSHIRE HIGHER EDUCATION CORPORATION, priority 2015, dated 2020).
# Assays:
# [1] = biological target: T1, S100P/RAGE function (Homo sapiens, UniProt P25815); settings: in vitro studies; cited from earlier work
# T1 sequence (P25815 1-95): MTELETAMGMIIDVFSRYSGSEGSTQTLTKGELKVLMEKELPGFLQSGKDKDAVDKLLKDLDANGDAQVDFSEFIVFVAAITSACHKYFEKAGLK
# [2] = tested on: Panc-1 cells; assay: Matrigel invasion assay, Panc-1; type: cell-based, Human; settings: data not shown
# Protocol: (§1) Compound 2 was one of seventeen compounds from the virtual screen that were subjected to a Matrigel invasion assay (Corning®, USA) screening against BxPC-3 and Panc-1 pancreatic cancer cells.
# (§2) All reagents for in vitro studies were purchased from Sigma Aldrich (Dorset, UK) unless otherwise specified. Human pancreatic cancer cells, Panc-1 (ATCC® CRL-1469™) and BxPC-3 (ATCC® CRL-1687™), were purchased from LGC Standards (LGC Ltd., Middlesex, UK). Both were cultured in their respective culture medium—Dulbecco Modified Eagle Medium (DMEM) for Panc-1 and RPMI-1640 for BxPC-3 supplemented with 10% v/v Foetal Bovine Serum (FBS), 200U Penicillin/Streptomycin solution, and 2 mM L-glutamine. Both cells were maintained at 37° C. in a 5% humidified CO2 atmosphere and passaged at least three times a week when they have reached about 70% confluency using a standardised trypsinisation protocol. […]
# (§3) Matrigel invasion assay were carried out using transwell inserts with 8-μm pore size (BD-Bioscience, Oxford, UK) and Biocoat Matrigel Invasion plates (BD-Bioscience, Oxford, UK). […] The number of cells from five adjacent fields of view from each of the membranes were counted at a ×10 magnification to obtain the average number of cells per field. Data are expressed as the percent invasion through the Matrigel matrix and membrane relative to the invasion through the control membrane.
# [3] = tested on: Panc-1 cells; assay: MTS cell proliferation assay, Panc-1; type: cell-based, Human
# Protocol: (§4) FIG. 3 illustrates the anti-proliferative effect of cromolyn on pancreatic cancer cells. FIG. 3A illustrates BxPC-3, and FIG. 3B illustrates Panc-1 cells. Cells were seeded overnight (10^4 cells/well) in 96 well plates in complete medium supplemented with 10% v/v FBS, 2 mM L-glutamine and 200 U Penicillin/Streptomycin solution. Compounds were serially diluted into the wells and cell proliferation assessed using MTS assay after 24, 48, and 72 hours. Results are expressed as mean±SEM with n=4. P value of <0.05 (*), <0.01 (**), <0.001 (***) and <0.0001 (****) was determined relative to control using 2-Way ANOVA. Post-test comparisons were made using Bonferroni test at 95% confidence interval;
# FIG. 5 illustrates anti-proliferative effect of compounds 2 (A), 3 (B), 8 (C), 26 (D) and 7 (E) on Panc-1 cells. Panc-1 cells were seeded overnight (10^4 cells/well) in 96-well plates in complete DMEM medium supplemented with 10% v/v FBS, 1% v/v L-glutamine and 200 U Penicillin/Streptomycin solution. Compounds were serially diluted into the wells and cell proliferation analysed using MTS assay after 24, 48, and 72 hours. Results are expressed as mean±SEM with n=4. P value of <0.05 (*), <0.01 (**), <0.001 (***) and <0.0001 (****) was determined relative to control using 2-Way ANOVA. Post-test comparisons were made Bonferroni test at 95% confidence interval; and
# as §2, with “protocol. Cromolyn was purchased as a sodium salt while compounds 2, 3, 7, 8 and 26 were synthesised, characterised and purified at the University of Hertfordshire.” for “protocol.”
# Pancreatic cancer cells (1×10^5 cells/mL) in 100 μL complete cell culture medium were plated in 96-well plates (Sigma-Aldrich, Poole, UK) and incubated overnight at 37° C., 5% CO2 atmosphere. […] Plates were incubated for 90 minutes before reading the absorbance at 492 nm using a Multiskan Ascent 96/384 plate reader (Thermo Scientific, Loughborough, UK). […]
# For data analysis, background noise (media only wells) was subtracted from all wells. DMSO absorbance at 1, 10, 100 and 1000 μM was subtracted from wells with sample compounds before an average of all four replicates was taken. […]
# [4] = tested on: BxPC-3 cells; assay: Matrigel invasion assay, BxPC-3; type: cell-based, Human; settings: 48 h
# Protocol: FIG. 2 illustrates the effect of 2 and cromolyn (100 μM) BxPC-3 invasion. FIG. 2A illustrates the results when compound 2 was added to serum-free medium in the upper compartment of Matrigel invasion chamber along with the BxPC-3 cells; while media with 10% serum was added to lower chamber. After 48 hours, cells that had invaded onto the lower surface of the membrane were stained using Giemsa stain and cells in 5 different fields were counted for invasion studies. Results are expressed as the mean±SEM. P value of <0.05 (*), <0.01 (**) and <0.001 (***) was determined relative to control using 2-Way ANOVA. Photographs of representative membranes for cells after Giemsa staining when the cells were exposed in FIGS. 2B, 2C, 2D and 2E;
# as §1
# All reagents for in vitro studies were purchased from Sigma Aldrich (Dorset, UK) unless otherwise specified. Human pancreatic cancer cells, Panc-1 (ATCC® CRL-1469™) and BxPC-3 (ATCC® CRL-1687™), were purchased from LGC Standards (LGC Ltd., Middlesex, UK). Both were cultured in their respective culture medium—Dulbecco Modified Eagle Medium (DMEM) for Panc-1 and RPMI-1640 for BxPC-3 supplemented with 10% v/v Foetal Bovine Serum (FBS), 200U Penicillin/Streptomycin solution, and 2 mM L-glutamine. […]
# as §3
# [5] = tested on: BxPC-3 cells; assay: MTS cell proliferation assay, BxPC-3; type: cell-based, Human; settings: for anti-proliferative effect on BxPC-3: 1 and 10 μM
# Protocol: as §4
# FIG. 4 illustrates the anti-proliferative effects of compounds 2 (A), 3 (B), 8 (C), 26 (D) and 7 (E) on BxPC-3 cells. BxPC-3 cells were seeded overnight (10^4 cells/well) in 96-well plates in complete RPMI-1640 medium supplemented with 10% v/v FBS, 2 mM L-glutamine and 200 U Penicillin/Streptomycin solution. Compounds were serially diluted into the wells and cell proliferation assessed using MTS assay after 24, 48, and 72 hours. Results are expressed as mean±SEM with n=4. P value of <0.05 (*), <0.01 (**), <0.001 (***) and <0.0001 (****) was determined relative to control using 2-Way ANOVA. Post-test comparisons were made using Bonferroni test at 95% confidence interval;
# All reagents for in vitro studies were purchased from Sigma Aldrich (Dorset, UK) unless otherwise specified. Human pancreatic cancer cells, Panc-1 (ATCC® CRL-1469™) and BxPC-3 (ATCC® CRL-1687™), were purchased from LGC Standards (LGC Ltd., Middlesex, UK). Both were cultured in their respective culture medium—Dulbecco Modified Eagle Medium (DMEM) for Panc-1 and RPMI-1640 for BxPC-3 supplemented with 10% v/v Foetal Bovine Serum (FBS), 200U Penicillin/Streptomycin solution, and 2 mM L-glutamine. Both cells were maintained at 37° C. in a 5% humidified CO2 atmosphere and passaged at least three times a week when they have reached about 70% confluency using a standardised trypsinisation protocol. Cromolyn was purchased as a sodium salt while compounds 2, 3, 7, 8 and 26 were synthesised, characterised and purified at the University of Hertfordshire. To prepare stock concentrations (10 mM), cromolyn was dissolved in distilled water while compounds 2, 3, 7, 8 and 26 were dissolved in DMSO.
# (§5) Pancreatic cancer cells (1×10^5 cells/mL) in 100 μL complete cell culture medium were plated in 96-well plates (Sigma-Aldrich, Poole, UK) and incubated overnight at 37° C., 5% CO2 atmosphere. Cromolyn and compounds 2, 3, 7, 8 and 26 were prepared from stocks of 10 mM in serum-free medium and serially diluted to give 1, 10, 100 and 1000 μM. Control samples for this study included cells without any drugs, cell samples with DMSO at the corresponding concentration(s) and media-only samples. Cells were incubated with test compounds for 24, 48 and 72 h. At each time point i.e. 24, 48 and 72 h, CellTiter 960 AQueous Non-Radioactive Cell Proliferation Assay (MTS) (Promega, UK) was added to each well (1:5). Plates were incubated for 90 minutes before reading the absorbance at 492 nm using a Multiskan Ascent 96/384 plate reader (Thermo Scientific, Loughborough, UK). The experiments were repeated three times.
# For data analysis, background noise (media only wells) was subtracted from all wells. DMSO absorbance at 1, 10, 100 and 1000 μM was subtracted from wells with sample compounds before an average of all four replicates was taken. Data is plotted as mean from three repeats ±SEM with p value set at 0.05.
# [6] = Solubility in the culture media of the proliferation assay; type: physicochemical; settings: at 100 μM and above
# Protocol: as §5
# [7] = biological target: T2, S100P binding to RAGE (Homo sapiens, UniProt P25815); assay: S100P/RAGE functional assay (ELISA of S100P-RAGE binding); settings: initial results
# T2 sequence (P25815 1-95): T1 sequence (P25815 1-95)
# Protocol: FIGS. 6A to 6H illustrate the effect of drugs on the binding between 1 μM S100P and 30 nM RAGE in ELISA assay wherein n=3 from one plate.
# ELISA assay of S100P-RAGE binding was carried out using the method of Padilla et al. (Padilla, L., Dakhel, S., & Hernandez, J. (2014). S100 to receptor for advanced glycation end-products binding assay: Looking for inhibitors. Biochemical and Biophysical Research Communications, 446(1), 404-409. doi:10.1016/j.bbrc.2014.02.143). FIGS. 6A to 6H illustrate the effect of drugs on the binding between 1 μM S100P and 30 nM RAGE in ELISA assay wherein n=3 from one plate.
# [8] = tested on: BxPC-3 cells; assay: Trypan blue counting of BxPC-3 cells; type: cell-based, Human; settings: 1 μM
# [9] = in vivo; cited from earlier work
# [10] = except at the higher concentration of 1000 μM
molecule,measurement,setting,value
5-methyl cromolyn,concentration inhibiting S100P/RAGE function,[1],100 nmol/L
"O=C(O)c1cccc(N2C(=O)C3C4c5ccccc5C([N+](=O)[O-])(c5ccccc54)C3C2=O)c1 (centres unmarked) [Compound 2, 3-(9-Nitro-12,14-dioxo-9,10-dihydro-9,10-[3,4]epipyrroloanthracen-13-yl)benzoic acid]",effect on invasion of Panc-1 cells,[2],No effect
same,anti-proliferation effect on Panc-1 cells,[3],a similar effect was also observed
same,reduction in invasion of BxPC-3 cells across the Matrigel matrix,[4]; 100 μM,17%
same,reduction in invasion of BxPC-3 cells across the Matrigel matrix,[4]; 500 μM,100%
same,inhibition of growth of BxPC-3 relative to control,"[5]; all three concentrations, after 72 h, p<0.001",noticeable inhibition of growth
"CCOC(=O)c1cccc(N2C(=O)C3C4c5ccccc5C([N+](=O)[O-])(c5ccccc54)C3C2=O)c1 (centres unmarked) [Compound 3, Ethyl 3-(9-nitro-12,14-dioxo-9,10-dihydro-9,10-[3,4]epipyrroloanthracen-13-yl)benzoate]",solubility issues in the culture media,[6],precipitating in the culture media
same,anti-proliferative effect on BxPC-3 compared to 2,[5]; after 24 h,more pronounced anti-proliferative effect
same,state of BxPC-3 cells compared to the control,[5]; after 48 h,the cells appear to be recovering albeit only slightly
"O=C1C2C3c4ccccc4C([N+](=O)[O-])(c4ccccc43)C2C(=O)N1c1ccccc1 (centres unmarked) [Compound 7, 9-Nitro-13-phenyl-9,10-dihydro-9,10-[3,4]epipyrroloanthracene-12,14-dione]",anti-proliferation effect on Panc-1 cells,[3],inhibition was unfortunately observed
same,solubility issues in the culture media,[6],precipitating in the culture media
same,anti-proliferative effect on BxPC-3,[5],inhibited proliferation
"O=C(O)c1ccc(N2C(=O)C3C4c5ccccc5C([N+](=O)[O-])(c5ccccc54)C3C2=O)cc1 (centres unmarked) [Compound 8, 4-(9-Nitro-12,14-dioxo-9,10-dihydro-9,10-[3,4]epipyrroloanthracen-13-yl)benzoic acid]",inhibition of S100P binding to RAGE,[7],nanomolar inhibition
same,viability of BxPC-3 cells by trypan blue counting,[8],still viable
same,solubility issues in the culture media,[6],precipitating in the culture media
same,metabolic activity of BxPC-3 cells,[5]; 1 μM,no metabolic activity was observed
same,anti-proliferative effect on BxPC-3,[5],more pronounced
"O=C(O)c1cccc(N2C(=O)C3C4c5ccccc5C(c5ccccc54)C3C2=O)c1 (centres unmarked) [Compound 26, 3-(12,14-Dioxo-9,10-dihydro-9,10-[3,4]epipyrroloanthracen-13-yl)benzoic acid]",anti-proliferation effect on Panc-1 cells,[3],inhibition was unfortunately observed
same,anti-proliferative effect on BxPC-3,[5],inhibited proliferation
"O=C(O)c1cc(=O)c2c(OCC(O)COc3cccc4oc(C(=O)O)cc(=O)c34)cccc2o1 [cromolyn, reference compound]",effect against the proliferation of Panc-1 cells,[3]; [10],no significant effect
same,reduction in invasion of BxPC-3 cells across the Matrigel matrix,[4]; 100 μM,20%
same,effect against the proliferation of BxPC-3 cells,[5]; [10],no significant effect
same,bioavailability,[9],low bioavailability
